Experimental data reported in publication PMC6695355, “Alanine Scanning Studies of the Antimicrobial Peptide Aurein 1.2” (Probiotics and Antimicrobial Proteins, 2018).
In brackets after ≈: the same amount, converted by molar mass. Where a SMILES comes first, the peptide text is derived from it.

Legend:
[1] = system: E. faecalis PCM 2673 biofilm; type: cell-based, Enterococcus faecalis; details: 24 h
Method: (§1) The minimum inhibitory concentrations (MICs) of test compounds were assessed by broth microdilution method on 96-well plates, according to the guidelines of Clinical and Laboratory Standards Institute (CLSI). For this purpose, reference strains of bacteria: S. aureus ATCC 25923, E. faecalis PCM 2673, E. coli ATCC 25922, and P. aeruginosa ATCC 9027; and fungus: C. albicans ATCC 10231 were used (The Polish Collection of Microorganism, Polish Academy of Sciences, Wrocław, Poland). Bacteria at initial inoculums of 0.5 × 10^5 CFU/mL in Mueller Hinton Broth (MHB), and fungi at initial inoculums of 2 × 10^3 CFU/mL in RPMI-1640, were exposed to the compounds over the concentration range of 1–512 μg/mL. The polystyrene plates were incubated at 37 °C for 18 h with bacteria and for 24 h with C. albicans. The MIC was taken as the lowest concentration at which a noticeable growth of microorganisms was inhibited. Minimum biofilm eradication concentrations (MBECs) were determined using a previously described protocol. For this purpose, 96-well polystyrene flat-bottom plates and a resazurin (7-hydroxy-3H-phenoxazin-3-one 10-oxide) were used. In this assay, a specific feature of resazurin is utilized, which upon the contact with living cells is metabolized and reduced from the basic blue form to pink resorufin. Briefly, 24-h cultures of microorganisms were diluted 1,000-fold and 100 μL of that suspension was added into the test plates. After 24 h of incubation at 37 °C, the wells of the plates were rinsed three times with phosphate buffer saline (PBS) to remove non-adherent cells. Subsequently, 100 μL of test compounds in concentration range (diluted in appropriate media) were added to each well. After 24 h of incubation at 37 °C, 20 μL of the resazurin (4 mg/mL) was added. The MBEC was read after 1 h. Additionally, anti-adhesive properties of the compounds were also analyzed. The assay was conducted on 96-well polystyrene flat-bottom plates. The preparation of inoculums was followed by a 500-fold dilution of 24-h cultures of microorganisms. Briefly, to evaluate the effect of the peptides in preventing biofilm formation, 50 μL of compounds in concentration range, diluted in appropriate medium, were prepared. Subsequently, the 50 μL of the bacterial/fungal inoculums were added to reach the same microbial density as that in MBEC assay. After 24 h of incubation at 37 °C, the wells were rinsed three times with PBS and the fresh media with resazurin (0.6 mg/mL) were added. Then, after 1 h of incubation, the minimum biofilm inhibitory concentrations (MBIC) were read. MBECs as well as MBICs were determined as the lowest concentration at which the reduction of resazurin was lower or equal (10% ± 0.5%) as compared to positive (100%) and negative (0%) controls. All experiments were performed in triplicate.

E. faecalis PCM 2673 = type: cell-based, Enterococcus faecalis; details: PCM 2673, 18 h
Method: as §1

[2] = system: E. faecalis PCM 2673 biofilm formation; type: cell-based, Enterococcus faecalis; details: 24 h
Method: as §1

in vitro = in vitro ADME; details: bovine, serum
Method: To assess serum stability, the peptides (0.5 mg) were dissolved in 4 mL of 25% (v/v) fetal bovine serum (FBS) in PBS and incubated at 37 °C. The aliquots of 100 μL of the test samples were transferred to 96-well polystyrene plates in triplicate for each time point. Samples were quenched at zero time (t0) and after 6 h of incubation at 37 °C by addition of 100 μL of ice-cold acetonitrile and stored at 4 °C for 10 min. Afterwards, the samples were centrifuged at 13,000×g for 20 min at 4 °C and diluted 1:1 with HPLC-grade water. All samples were analyzed using the Waters Alliance e2695 system with Waters Acquity QDa Detector (software–Empower®3). Analyses were conducted on an Agilent Zorbax SB-C18 RP-18 column (4.6 × 50 mm, 1.8-μm particle size, 80-Å pore size) using a linear 30–60% acetonitrile (B) gradient in deionized water (A) over 6 min at 25.0 ± 0.1 °C, at a flow rate of 0.5 mL/min and MS working in selected ion recording (SIR) mode (A—0.1% aqueous formic acid (FA) and B—0.1% FA in acetonitrile). The percentage of peptide remaining intact was calculated from peak areas of samples at t0 and after 6 h of incubation in serum (the % of remaining peptide = peak area after 6 h/peak area at t0). The mass-to-charge ratios selected for SIR mode were based on values obtained from full spectrum analysis of each peptide and are presented in Table 1.

[3] = system: P. aeruginosa ATCC 9027 biofilm; type: cell-based, Pseudomonas aeruginosa; details: ATCC 9027, 24 h
Method: as §1

[4] = system: P. aeruginosa ATCC 9027 biofilm formation; type: cell-based, Pseudomonas aeruginosa; details: ATCC 9027, 24 h
Method: as §1

P. aeruginosa ATCC 9027 = type: cell-based, Pseudomonas aeruginosa; details: ATCC 9027, 18 h
Method: as §1

[5] = system: human red blood cells (RBCs); assay: Hemolysis assay; type: cell-based; details: red cells of human, 1 h
Method: The hemolytic activity of the peptides was determined using fresh human red blood cells (RBCs) collected from a healthy human donor according to the procedure described in the literature. Fresh RBCs with EDTA as anticoagulant were rinsed three times with a PBS by centrifugation at 800×g for 10 min and resuspension in PBS. Serial dilution of the peptides in PBS (1–256 μg/mL) on 96-well polystyrene plates was prepared and the stock solution of RBCs was added up to a final volume of 100 μL with a 4% concentration of erythrocytes (v/v). The control wells for 0 and 100% hemolysis contained of RBCs suspended in PBS and 1% of Triton-X 100, respectively. Subsequently, the plates were incubated for 1 h at 37 °C and then centrifuged at 800×g for 10 min at 4 °C (Sorvall ST 16R Centrifuge, Thermo Scientific). After centrifugation, the supernatant was carefully […] to new microtiter plates and the release of hemoglobin was measured at 540 nm (Multiskan™ GO Microplate Spectrophotometer, Thermo Scientific). All experiments were conducted in triplicate.

[6] = system: C. albicans ATCC 10231 biofilm; type: cell-based, Candida albicans; details: ATCC 10231, 24 h
Method: as §1

[7] = system: C. albicans ATCC 10231 biofilm formation; type: cell-based, Candida albicans; details: ATCC 10231, 24 h
Method: as §1

C. albicans ATCC 10231 = type: cell-based, Candida albicans; details: ATCC 10231, 24 h
Method: as §1

[8] = system: S. aureus ATCC 25923 biofilm; type: cell-based, Staphylococcus aureus; details: ATCC 25923, 24 h
Method: as §1

[9] = system: S. aureus ATCC 25923 biofilm formation; type: cell-based, Staphylococcus aureus; details: ATCC 25923, 24 h
Method: as §1

S. aureus ATCC 25923 = type: cell-based, Staphylococcus aureus; details: ATCC 25923, 18 h
Method: as §1

E. coli ATCC 25922 = type: cell-based, Escherichia coli; details: ATCC 25922, 18 h
Method: as §1

[10] = system: E. coli ATCC 25922 biofilm; type: cell-based, Escherichia coli; details: ATCC 25922, 24 h
Method: as §1

[11] = system: E. coli ATCC 25922 biofilm formation; type: cell-based, Escherichia coli; details: ATCC 25922, 24 h
Method: as §1

MIC, E. faecalis PCM 2673 (E. faecalis PCM 2673)	remaining at 6 h, 0.125 mg/mL (in vitro)	MIC, P. aeruginosa ATCC 9027 (P. aeruginosa ATCC 9027)	MIC, C. albicans ATCC 10231 (C. albicans ATCC 10231)	SMILES	MBEC, E. faecalis PCM 2673 [1]	MBIC, E. faecalis PCM 2673 [2]	MBEC, P. aeruginosa ATCC 9027 [3]	MBIC, P. aeruginosa ATCC 9027 [4]	Percentage of hemolysis at 1 μg/mL [5]	Percentage of hemolysis at 2 μg/mL [5]	Percentage of hemolysis at 4 μg/mL [5]	Percentage of hemolysis at 8 μg/mL [5]	Percentage of hemolysis at 16 μg/mL [5]	Percentage of hemolysis at 32 μg/mL [5]	Percentage of hemolysis at 64 μg/mL [5]	Percentage of hemolysis at 128 μg/mL [5]	Percentage of hemolysis at 256 μg/mL [5]	MBEC, C. albicans ATCC 10231 [6]	MBIC, C. albicans ATCC 10231 [7]	MBEC, S. aureus ATCC 25923 [8]	other results
128 µg/mL (≈ 89 µM)	71%	512 µg/mL (≈ 356 µM)	256 µg/mL (≈ 178 µM)	CC[C@H](C)[C@H](NC(=O)[C@H](C)NC(=O)[C@H](CC(=O)O)NC(=O)[C@H](Cc1ccccc1)NC(=O)[C@H](CC(C)C)NC(=O)CN)C(=O)N[C@@H](CCCCN)C(=O)N[C@@H](CCCCN)C(=O)N[C@H](C(=O)N[C@@H](C)C(=O)N[C@@H](CCC(=O)O)C(=O)N[C@@H](CO)C(=O)N[C@@H](Cc1ccccc1)C(N)=O)[C@@H](C)CC [Peptide I5A] (H-GLFDAIKKIAESF-NH2)	> 512 µg/mL	512 µg/mL	> 512 µg/mL	> 512 µg/mL	0.2%	0.3%	0.2%	0.0%	0.0%	0.0%	0.1%	0.0%	1.1%	512 µg/mL	4 µg/mL	> 512 µg/mL	MBIC, S. aureus ATCC 25923 [9]: > 512 µg/mL; MIC, S. aureus ATCC 25923 (S. aureus ATCC 25923): > 512 µg/mL; MIC, E. coli ATCC 25922 (E. coli ATCC 25922): 256 µg/mL (≈ 178 µM); MBEC, E. coli ATCC 25922 [10]: 512 µg/mL; MBIC, E. coli ATCC 25922 [11]: 512 µg/mL
256 µg/mL (≈ 178 µM)	29%	> 512 µg/mL	256 µg/mL (≈ 178 µM)	CC[C@H](C)[C@H](NC(=O)[C@H](CCCCN)NC(=O)[C@H](CCCCN)NC(=O)[C@H](C)NC(=O)[C@@H](NC(=O)[C@H](CC(=O)O)NC(=O)[C@H](Cc1ccccc1)NC(=O)[C@H](CC(C)C)NC(=O)CN)[C@@H](C)CC)C(=O)N[C@@H](C)C(=O)N[C@@H](CCC(=O)O)C(=O)N[C@@H](CO)C(=O)N[C@@H](Cc1ccccc1)C(N)=O [Peptide I6A] (H-GLFDIAKKIAESF-NH2)	> 512 µg/mL	> 512 µg/mL	> 512 µg/mL	> 512 µg/mL	0.4%	0.6%	0.5%	0.3%	0.1%	0.0%	0.1%	0.1%	0.1%	> 512 µg/mL	4 µg/mL	> 512 µg/mL	MBIC, S. aureus ATCC 25923 [9]: > 512 µg/mL; MIC, S. aureus ATCC 25923 (S. aureus ATCC 25923): > 512 µg/mL; MIC, E. coli ATCC 25922 (E. coli ATCC 25922): 512 µg/mL (≈ 356 µM); MBEC, E. coli ATCC 25922 [10]: > 512 µg/mL; MBIC, E. coli ATCC 25922 [11]: 512 µg/mL
128 µg/mL (≈ 89 µM)	6%	> 512 µg/mL	512 µg/mL (≈ 356 µM)	CC[C@H](C)[C@H](NC(=O)[C@H](CC(=O)O)NC(=O)[C@H](Cc1ccccc1)NC(=O)[C@H](CC(C)C)NC(=O)CN)C(=O)N[C@H](C(=O)N[C@@H](CCCCN)C(=O)N[C@@H](CCCCN)C(=O)N[C@@H](C)C(=O)N[C@@H](C)C(=O)N[C@@H](CCC(=O)O)C(=O)N[C@@H](CO)C(=O)N[C@@H](Cc1ccccc1)C(N)=O)[C@@H](C)CC [Peptide I9A] (H-GLFDIIKKAAESF-NH2)	> 512 µg/mL	> 512 µg/mL	> 512 µg/mL	> 512 µg/mL	0.6%	0.6%	0.3%	0.1%	0.0%	0.0%	0.0%	0.0%	0.0%	> 512 µg/mL	16 µg/mL	> 512 µg/mL	MBIC, S. aureus ATCC 25923 [9]: > 512 µg/mL; MIC, S. aureus ATCC 25923 (S. aureus ATCC 25923): > 512 µg/mL; MIC, E. coli ATCC 25922 (E. coli ATCC 25922): 512 µg/mL (≈ 356 µM); MBEC, E. coli ATCC 25922 [10]: > 512 µg/mL; MBIC, E. coli ATCC 25922 [11]: >512 µg/mL
